The text below walks through data of the pKa sets of Baltruschat and Czodrowski (2020).

A word on the pKa: it is the pH at which an ionisable group is half protonated.

As for `FC1(F)CCCNC1`, the pKa stood at 7.4.

Molecule `CCc1cccc(CC)c1NC1=NCCN1` registered a pKa of 10.6. `CNC(=C[N+](=O)[O-])NCCSCc1csc(CN(C)C)n1`: the pKa is 6.59.

As for `CN(C)C(=O)C1C2c3ccccc3C(c3ccccc32)C1C(=O)N(C)C` (centres undefined), the pKa is -1.34. `O=C(C1CCN(c2ccncn2)CC1)N1CCN(S(=O)(=O)c2ccc(Br)cc2)CC1` displayed a pKa of 6.1. `CS(=O)(=O)Nc1ccc(Nc2c3ccccc3nc3cccc([N+](=O)[O-])c23)cc1`: the pKa amounted to 4.79. Molecule `Cc1nc(N)ncc1CNC(=O)Cn1c(C)cnc(NCCc2ccccc2)c1=O` had a pKa of 4.2. The molecule `c1nc[nH]n1` had a pKa of 2.19.

In turn, `CN(C)C(C)(C)CCCc1ccc(C(C)(C)C)cc1` gave a pKa of 10.4. `CN(C)CCCCc1ccc(C2COC2)cc1` showed a pKa of 9.9. Consider `Cc1ccc(NS(=O)(=O)Cc2ccccc2)c(=O)n1CC(=O)NCc1cnc(N)cn1`, for which the pKa was found to be 2.7.

For the molecule `C[C@H](CO)Nc1nc(SCc2cccc(F)c2F)nc2[nH]c(=O)sc12`, the pKa was 6.7. The value for `FC1CCNCC1` was 9.4; that for `CCOc1cccc2c(Nc3ccc(NS(C)(=O)=O)cc3OC)c3ccccc3nc12` was 7.37; that for `CCCCc1nc(Cl)c(COC)n1Cc1ccc(NC(=O)c2ccccc2S(=O)(=O)O)cc1` was -6.6.

`CC(=O)c1ccc(Nc2c3ccccc3nc3ccccc23)cc1` displayed a pKa of 6.12.

For `O=[N+]([O-])c1ncc[nH]1`, the pKa stood at 0.81. Molecule `O=C(Nc1ccon1)N1CCN(Cc2cccc(Oc3ccc(Cl)cc3)c2)CC1` gave a pKa of -2.97. `Clc1ccccc1N=C1NCCN1` registered a pKa of 9.15. For the molecule `CN1C=CC(C2NC(C(F)(F)F)=CN2c2ccc(S(N)(=O)=O)cc2)C=C1` (centres undefined), the pKa was 7.58. `Cc1ccc(N=C2NCCN2)c(Cl)c1` yielded a pKa of 9.41. The molecule `COc1cc(NS(C)(=O)=O)ccc1Nc1c2ccccc2nc2cc([N+](=O)[O-])ccc12` gave a pKa of 5.72. `Cc1nc2c(/C=C\c3ccccc3)cccn2c1C` gave a pKa of 7.2.

Take `CNc1ccnc(N2CCc3ccccc3C2)c1`: the pKa stood at 8.9. The molecule `NC(N)=Nc1nc(CSCC/C(N)=N/S(N)(=O)=O)cs1` came in with a pKa of 7.1. For `CC(C)Oc1ccc(-c2nc(-c3ccc4c(c3)CCN(C(CO)CO)CC4)no2)cc1C#N`, the pKa was determined as 7.8. `CS(=O)(=O)Nc1ccc(Nc2c3ccccc3nc3ccccc23)cc1.Cl`: the pKa amounted to 7.19. Consider `COc1cccc(S(=O)(=O)Nc2cccn(CC(=O)NCc3ccc(C(=N)N)cc3)c2=O)c1`, for which the pKa stood at 10.2.

Turning to `CS(=O)(=O)O.NC(=O)Cc1ccc(Nc2c3ccccc3nc3ccccc23)cc1`, the pKa amounted to 7.43. Take `CCCCNCc1ccc(C(=O)c2csc(S(N)(=O)=O)c2)cc1.Cl`: the pKa turned out to be 8.12. For the molecule `Fc1ncc[nH]1`, the pKa worked out at 2.4.

`CN1CCCC(n2nc(Cc3ccc(Cl)cc3)c3ccccc3c2=O)CC1` (centres undefined) showed a pKa of 9.54.

`Cc1ncc[nH]1`: the pKa was found to be 7.86. Molecule `BP(=O)(OC[C@H]1O[C@@H](n2cnc3c(N)ncnc32)[C@H](O)[C@@H]1O)OP(=O)(O)CP(=O)(O)O` (some centres undefined) showed a pKa of 8.4.

`COc1ccc2c(c1)N(CCN(C)C)CCO2` displayed a pKa of 8.6. Consider `CS(=O)(=O)Nc1ccc(Nc2c3ccccc3nc3cccnc23)cc1`, for which the pKa came to 6.9. In turn, `CC(C)(C)NCC(O)COc1cccc2c1C[C@H](O)[C@H](O)C2` (some centres undefined) gave a pKa of 9.67.

In turn, `NS(=O)(=O)Cc1ccc(Nc2c3ccccc3nc3ccccc23)cc1` returned a pKa of 7.05.

On to `CCC12CCC(=O)C=C1c1c(cc(OCC(=O)OC(C)(C)C(=O)O)c(Cl)c1Cl)C2` (centres undefined), for which the pKa turned out to be 3.8. The value for `COc1ccc2c(Nc3ccc(NS(C)(=O)=O)cc3OC)c3ccccc3nc2c1` was 7.81; that for `CC1=CN(c2ccc(S(N)(=O)=O)cc2)C(C2C=CN(C)C=C2)N1` (centres undefined) was 7.26. The value for `O=[N+]([O-])c1cc(Cl)c(N=C2NCCN2)c(Cl)c1` was 6.86. `CC(=O)N1CCN(c2ccc(OCC3COC(Cn4ccnc4)(c4ccc(Cl)cc4Cl)O3)cc2)CC1` (centres undefined) yielded a pKa of 5.41.

As to `Cl.Fc1ccc2c(c1)N(CCCN1CCCC1)c1cc(F)ccc1CC2`, the pKa is 7.6. For the molecule `CCCC12CCC(=O)C=C1c1c(cc(OCC(=O)O)c(Cl)c1Cl)C2` (centres undefined), the pKa was determined as 3.6. In turn, `CN(C)CCCC1(c2ccc(C(C)(C)C)cc2)COC1` gave a pKa of 9.6. Turning to `COc1cc(NS(C)(=O)=O)ccc1Nc1c2ccccc2nc2ccc(C)cc12`, the pKa was determined as 7.45. The molecule `COc1ccc(Cl)cc1C(=O)NCCc1ccc(S(=O)(=O)NC(=O)NC2CCCCC2)cc1` registered a pKa of 5.3. The value for `CC(C)c1ccccc1Nc1c2ccccc2nc2ccccc12` was 7.64; that for `CS(=O)(=O)Nc1ccc(Nc2c3ccccc3nc3ccccc23)cc1Cl` was 6.44; that for `Fc1cccc(F)c1N=C1NCCN1` was 8.18. In turn, `CC(C)(C)NCc1ccc(S(=O)(=O)c2csc(S(N)(=O)=O)c2)cc1.Cl` returned a pKa of 8.08. `COc1cc(NS(C)(=O)=O)ccc1Nc1c2ccccc2nc2c(F)cccc12` came in with a pKa of 6.33.

`CN(C)CCCCc1ccc(C2(C)COC2)cc1` showed a pKa of 9.9.

`N[C@@H](CS)C(=O)O`: the pKa amounted to 8.3. `CCCCCCOC(=O)c1ccc(OS(N)(=O)=O)cc1`: the pKa was 8.52. `CCN(C)C` had a pKa of 10.2. For `CN(C)C1(CCCc2ccc(C(C)(C)C)cc2)COC1`, the pKa amounted to 7.2. As to `Nc1nc2ccccc2[nH]1`, the pKa worked out at 7.5. The value for `Cn1ccnc1N` was 8.54. The molecule `CCN(CC)C(=O)[C@@H]1C=C2c3cccc4[nH]cc(c34)C[C@H]2N(C)C1` came in with a pKa of 7.8. The molecule `Nc1ccc(CC(C(=O)O)N(CCN(CC(=O)O)CC(=O)O)CCN(CC(=O)O)CC(=O)O)cc1` (centres undefined) displayed a pKa of 10.2.

As for `Cc1nc2c(/C=C/Cc3ccccc3)cccn2c1N`, the pKa came to 6.75.

`COCC1CC(C(=O)NC[C@H]2CCCO2)CN(Cc2nc(N3CCOCC3)oc2C)C1` (some centres undefined): the pKa came to 7.8.

Regarding `COC(=O)Nc1ccccc1Nc1c2ccccc2nc2ccccc12`, the pKa was 7.24.

As for `COc1cc(NS(C)(=O)=O)ccc1Nc1c2ccccc2nc2c(Cl)cccc12`, the pKa was 6.11. Regarding `COc1ccc([C@@H]2Sc3ccccc3N(CCN(C)C)C(=O)[C@@H]2OC(C)=O)cc1.Cl`, the pKa was 8.06.

`CN(c1ccc(Nc2c3ccccc3nc3ccccc23)cc1)S(C)(=O)=O` had a pKa of 6.95. With `O=C(Nc1ccccc1)Nc1ccc(Nc2c3ccccc3nc3ccccc23)cc1`, the pKa amounted to 7.67.

On to `Cc1ccccc1Nc1c2ccccc2nc2ccccc12`, for which the pKa is 7.76.

Consider `NC(=O)C(F)(F)F`, for which the pKa was found to be 17.2. Then `CS(=O)(=O)Nc1ccc(Nc2c3ccccc3nc3ccncc23)cc1`, with 5.73. Molecule `Cl.NS(=O)(=O)c1cc(S(=O)(=O)c2ccc(CN3CCOCC3)cc2)cs1` yielded a pKa of 5.28. `O=C(NCc1ccccc1)C1=CC2c3ccccc3C1c1ccccc12` yielded a pKa of -2.01.

`O=C(O)CCc1ccccc1` showed a pKa of 4.64. `NC1OC(CO)C(O)C(O)C1O` (centres undefined) showed a pKa of 5.6. For the molecule `CCCCCS(=O)(=O)NCCCc1ccc(OCCOC)cc1Oc1ncc(C(F)(F)F)cc1Cl`, the pKa stood at 17.5. `CN1CC[C@H](N(C)C(=O)N2CC(c3cc(F)ccc3F)=C[C@@]2(CO)c2ccccc2)[C@@H](F)C1`: the pKa amounted to 6.6. Consider `COc1cc(NS(C)(=O)=O)ccc1Nc1c2ccccc2nc2ccc(F)cc12`, for which the pKa amounted to 6.71. On to `Fc1cccc(Cl)c1N=C1NCCN1`, for which the pKa amounted to 8.01.

In turn, `C/C(=N\N=C(/S)N/N=C(\S)Nc1cccc(C(F)(F)F)c1)c1ccccn1` had a pKa of 6.79. The value for `Cc1cnc(NCCc2ccccc2)c(=O)n1CC(=O)NCc1cnc(N)cn1` was 2.7. The value for `Cc1cc(Nc2c3ccccc3nc3ccccc23)ccc1NS(C)(=O)=O` was 7.08; that for `O=S(=O)(Nc1ccc(Nc2c3ccccc3nc3ccccc23)cc1)c1ccccc1` was 7.09.

Take `O=C(c1ccccc1)c1ccc2n1CCC2C(=O)O` (centres undefined): the pKa came out at 3.5. The value for `NCCCC(F)(F)F` was 9.7; that for `COc1cccc(S(=O)(=O)Nc2cccn(CC(=O)NCc3ccc(C(=N)N)cc3F)c2=O)c1` was 9.4. Turning to `Nc1ncc[nH]1`, the pKa came out at 8.46. Molecule `FC1CCCNC1` (centres undefined) displayed a pKa of 9.3. As for `CN1CC[C@H](N(C)C(=O)N2CC(c3cc(F)ccc3F)=C[C@@]2(CO)c2ccccc2)[C@H](F)C1`, the pKa came out at 7.6.

Turning to `CS(=O)(=O)Nc1ccc(Nc2c3ccccc3nc3cc(Br)ccc23)cc1`, the pKa was 6.56. In turn, `Cc1cc(=O)n(-c2ccccc2)n1C` came in with a pKa of 1.44. For the molecule `CS(=O)(=O)Nc1ccc(Nc2c3ccccc3nc3cc(N=[N+]=[N-])ccc23)cc1`, the pKa was determined as 7.

Take `O=C(c1ccc(CN2CCOCC2)cc1)N1CCN(C2CCC2)CC1`: the pKa was determined as 6.5. With `CN1CCC[C@H]1c1cccnc1`, the pKa came out at 8.1. `CN(C)CCCN1c2ccccc2CCc2ccc(Cl)cc21` came in with a pKa of 9.38. For `CN1CCN2c3ccccc3Cc3ccccc3C2C1` (centres undefined), the pKa is 7.1. In turn, `Cc1cc(Cl)cc(Cl)c1N=C1NCCN1` had a pKa of 9.03.

In turn, `Cc1ccc(NS(=O)(=O)Cc2ccccc2)c(=O)n1CC(=O)NCc1ccc(C(=N)N)cc1` came in with a pKa of 10.2. For `CS(=O)(=O)NCc1ccccc1Nc1c2ccccc2nc2ccccc12`, the pKa was found to be 7.17. In turn, `CCc1ccccc1Nc1c2ccccc2nc2ccccc12` came in with a pKa of 7.68. `CS(=O)(=O)Nc1ccc(Nc2c3ccccc3nc3cc(N)ccc23)cc1` yielded a pKa of 9.8. Molecule `COc1cc(NS(C)(=O)=O)ccc1Nc1c2ccccc2nc2cc(F)ccc12` returned a pKa of 7.05. The value for `Cc1cccc(Cl)c1N=C1NCCN1` was 9.4; that for `OCCN1CCN(CCCN2c3ccccc3Sc3ccc(Cl)cc32)CC1` was 7.8; that for `CS(=O)(=O)Nc1ccc(Nc2c3ccccc3nc3cc(I)ccc23)cc1` was 6.52. Turning to `COc1cc(NS(C)(=O)=O)ccc1Nc1c2ccccc2nc2cc(C(F)(F)F)ccc12`, the pKa came out at 6.24. Take `c1ccc(-c2ncc[nH]2)nc1`: the pKa is 5.36.

The molecule `c1c[nH]nn1` returned a pKa of 1.17.
